Reference: ChEMBL document CHEMBL4354856, “Discovery of 4,6-O-Thenylidene-β-d-glucopyranoside-(2″-acetamido, 3″-acetyl-di-S-5-fluorobenzothizole/5-fluorobenzoxazole)-4'-demethylepipodophyllotoxin as Potential Less Toxic Antitumor Candidate Drugs by Reducing DNA Damage and Less Inhibition of PI3K” (J Med Chem, 2020)
Active and inactive are the calls of the source. The calls are words filed in the database; no cut-off is given here.

How the values were obtained:
Homo sapiens = organism: Homo sapiens; experiment: Induction of PI3K/AKT phosphorylation in human HL7702 cells at 25 uM after 30 hrs by Western blot analysis; type: cell-based
L02 [1] = experiment: Induction of DNA damage in human HL7702 cells assessed as effect on gamma-H2AX phosphorylation at 20 uM after 24 hrs by Alexa Fluor 488 staining based fluorescence assay; type: cell-based; details: l02, 24 h
L02 [2] = experiment: Cytotoxicity against human HL7702 cells assessed as inhibition of cell proliferation measured after 48 hrs by MTT assay relative to teniposide; type: cell-based; details: l02, 48 h
[3] = Acute toxicity in C57BL6 mouse assessed as effect on heart at 30 mg/kg, ip administered for 20 days and measured after 20 days by hematoxylin and eosin staining based assay; type: organism-based; details: in vivo, 480 h
MRC5 [4] = experiment: Cytotoxicity against human MRC5 cells assessed as inhibition of cell proliferation measured after 48 hrs by MTT assay; type: cell-based; details: MRC5, 48 h
HepG2 [5] = experiment: Cell cycle arrest in human HepG2 cells assessed as accumulation at G2/M phase at 5 uM after 24 hrs by propidium staining based flow cytometry analysis; type: functional
HepG2 [6] = experiment: Antitumor activity against human HepG2 xenografted in BALB/c nude mouse assessed as tumor volume at 30 mg/kg, ip administered for 20 days and measured after 20 days by electronic caliper method (reference value: 960.20 +/- 32.10 mm3); type: functional
[7] = Acute toxicity in C57BL6 mouse assessed as effect on kidney at 30 mg/kg, ip administered for 20 days and measured after 20 days by hematoxylin and eosin staining based assay; type: organism-based; details: in vivo, 480 h
[8] = Therapeutic index, ratio of LD50 for acute toxicity in ip dosed C57BL6 mouse assessed as mouse survival administered as single dose for 3 days and monitored for 20 days by Bliss method to ED50 for antitumor activity against human HepG2 xenografted in ip dosed BALB/c nude mouse administered for 20 days and measured after 20 days by electronic caliper method; type: organism-based; details: in vivo, read-out: TI
L02 [9] = experiment: Genotoxicity in human HL7702 cells assessed as induction of DNA damage at 50 uM after 24 hrs in combination of teniposide by alkaline comet assay; type: toxicity, cell-based; details: l02, 24 h
[10] = biological target: DNA topoisomerase 2-alpha (Homo sapiens) (UniProt P11388); experiment: Inhibition of human topoisomerase-2alpha mediated decatenation using kinetoplast DNA as substrate after 30 mins in presence of ATP by ethidium bromide staining-based UV imaging analysis
L02 [11] = experiment: Induction of apoptosis in human HL7702 cells assessed as increase in PARP cleavage at 25 uM after 30 hrs by Western blot analysis; type: cell-based; details: l02, 30 h
L02 [12] = experiment: Induction of apoptosis in human HL7702 cells assessed as apoptotic cells at 50 uM measured after 42 hrs by Annexin-V/propidium iodide staining based flow cytometry analysis relative to control; type: cell-based; details: l02, 42 h
L02 [13] = experiment: Genotoxicity in human HL7702 cells assessed as induction of DNA damage by measuring tail DNA at 50 uM after 24 hrs by alkaline comet assay (reference value: 3 +/- 1.1 %); type: toxicity, cell-based; details: l02, 24 h
MCF7 = experiment: Anticancer activity against human MCF7 cells assessed as inhibition of cell proliferation measured after 48 hrs by MTT assay; type: functional, cell-based; details: MCF7, 48 h
[14] = Acute toxicity in C57BL6 mouse assessed as effect on liver at 30 mg/kg, ip administered for 20 days and measured after 20 days by hematoxylin and eosin staining based assay; type: organism-based; details: in vivo, 480 h
HepG2 [15] = experiment: Induction of DNA damage in human HepG2 cells assessed as increase in H2AX phosphorylation at 20 uM after 24 hrs by Alexa Fluor 488 staining based fluorescence assay; type: functional, cell-based
[16] = biological target: DNA topoisomerase 2-alpha (Homo sapiens) (UniProt P11388); experiment: Inhibition of human topoisomerase-2alpha mediated decatenation at 50 uM using kinetoplast DNA as substrate after 30 mins in presence of ATP by ethidium bromide staining-based UV imaging analysis relative to control
L02 [17] = experiment: Cytotoxicity against human HL7702 cells assessed as inhibition of cell proliferation measured after 48 hrs by MTT assay; type: cell-based; details: L02, 48 h
[18] = Acute toxicity in ip dosed C57BL6 mouse assessed as mouse survival administered as single dose for 3 days and monitored for 20 days by Bliss method; type: organism-based; details: in vivo
MRC5 [19] = experiment: Cytotoxicity against human MRC5 cells assessed as inhibition of cell proliferation measured after 48 hrs by MTT assay relative to teniposide; type: cell-based; details: mrc5, 48 h
L02 [20] = experiment: Induction of apoptosis in human HL7702 cells assessed as increase in BAX level at 25 uM after 30 hrs by Western blot analysis; type: cell-based; details: l02, 30 h
[21] = biological target: DNA topoisomerase 2-alpha (Homo sapiens) (UniProt P11388); experiment: Inhibition of human topoisomerase-2alpha mediated decatenation at 25 uM using kinetoplast DNA as substrate after 30 mins in presence of ATP by ethidium bromide staining-based UV imaging analysis
HepG2 [22] = experiment: Cell cycle arrest in human HepG2 cells assessed as accumulation at G2/M phase at 15 uM after 36 hrs by propidium staining based flow cytometry analysis relative to control; type: functional
HeLa = experiment: Anticancer activity against human HeLa cells assessed as inhibition of cell proliferation measured after 48 hrs by MTT assay; type: functional, cell-based
HepG2 [23] = experiment: Induction of apoptosis in human HepG2 cells assessed as apoptotic cells at 5 to 15 uM measured after 36 hrs by Annexin-V/propidium iodide staining based flow cytometry analysis relative to control; type: functional
HMEC [24] = experiment: Cytotoxicity against human HMEC cells assessed as inhibition of cell proliferation measured after 48 hrs by MTT assay relative to teniposide; type: cell-based
DNA topoisomerase II [25] = biological target: T1, DNA topoisomerase II (Homo sapiens, UniProt P11388+Q02880); experiment: Poison activity at topoisomerase-2 in human HepG2 cell lysate assessed as topoisomerase-2 band depletion after 3 hrs by Western blot analysis; type: subcellular
HepG2 [26] = experiment: Antitumor activity against human HepG2 xenografted in BALB/c nude mouse assessed as tumor growth inhibition at 30 mg/kg, ip administered for 20 days and measured after 20 days by electronic caliper method relative to control; type: functional; details: 480 h, read-out: TGI
A549 = experiment: Anticancer activity against human A549 cells assessed as inhibition of cell proliferation measured after 48 hrs by MTT assay; type: functional, cell-based; details: A549, 48 h
HepG2 [27] = experiment: Induction of apoptosis in human HepG2 cells assessed as apoptotic cells at 10 uM measured after 42 hrs by Annexin-V/propidium iodide staining based flow cytometry analysis relative to control; type: functional
HepG2 [28] = experiment: Anticancer activity against human HepG2 cells assessed as inhibition of cell proliferation measured after 48 hrs by MTT assay; type: functional, cell-based; details: HepG2, 48 h
L02 [29] = experiment: Cell cycle arrest in human HL7702 cells assessed as accumulation at G2/M phase at 5 uM after 30 hrs by propidium staining based flow cytometry analysis relative to control; details: l02, 30 h
[30] = Acute toxicity in C57BL6 mouse assessed as effect on lung at 30 mg/kg, ip administered for 20 days and measured after 20 days by hematoxylin and eosin staining based assay; type: organism-based; details: in vivo, 480 h
[31] = Acute toxicity in C57BL6 mouse assessed as effect on body weight at 100 mg/kg, ip administered for 20 days; type: organism-based; details: in vivo, 480 h
HepG2 [32] = experiment: Antitumor activity against human HepG2 xenografted in ip dosed BALB/c nude mouse administered for 20 days and measured after 20 days by electronic caliper method; type: functional; details: 480 h
[33] = Cytotoxicity against human H8 cells assessed as inhibition of cell proliferation measured after 48 hrs by MTT assay; type: cell-based
DNA topoisomerase II [34] = biological target: T1, DNA topoisomerase II; experiment: Poison activity at topoisomerase-2 in human HL7702 cell lysate assessed as reduction in topoisomerase-2 band depletion at 50 uM after 3 hrs by Western blot analysis; type: ADME, subcellular
HMEC [35] = experiment: Cytotoxicity against human HMEC cells assessed as inhibition of cell proliferation measured after 48 hrs by MTT assay; type: cell-based
HepG2 [36] = experiment: Cell cycle arrest in human HepG2 cells assessed as accumulation at G2/M phase at 5 uM after 24 hrs by propidium staining based flow cytometry analysis relative to control; type: functional
L02 [37] = experiment: Genotoxicity in human HL7702 cells assessed as induction of DNA damage at 50 uM after 24 hrs by alkaline comet assay; type: toxicity, cell-based; details: l02, 24 h
HepG2 [38] = experiment: Cell cycle arrest in human HepG2 cells assessed as accumulation at G2/M phase at 20 uM after 36 hrs by propidium staining based flow cytometry analysis relative to control; type: functional
L02 [39] = experiment: Cell cycle arrest in human HL7702 cells assessed as accumulation at G2/M phase at 5 uM after 30 hrs by propidium staining based flow cytometry analysis; details: l02, 30 h
HepG2 [40] = experiment: Induction of apoptosis in human HepG2 cells assessed as apoptotic cells at 20 uM measured after 42 hrs by Annexin-V/propidium iodide staining based flow cytometry analysis relative to control; type: functional
[41] = Acute toxicity in C57BL6 mouse assessed as lethality at 100 mg/kg, ip administered for 4 days; type: organism-based; details: in vivo, 96 h
L02 [42] = experiment: Cell cycle arrest in human HL7702 cells assessed as accumulation at G2/M phase at 50 uM after 42 hrs by propidium staining based flow cytometry analysis relative to control; details: l02, 42 h

Chain of DNA topoisomerase 2-alpha (Homo sapiens) (P11388 whole entry): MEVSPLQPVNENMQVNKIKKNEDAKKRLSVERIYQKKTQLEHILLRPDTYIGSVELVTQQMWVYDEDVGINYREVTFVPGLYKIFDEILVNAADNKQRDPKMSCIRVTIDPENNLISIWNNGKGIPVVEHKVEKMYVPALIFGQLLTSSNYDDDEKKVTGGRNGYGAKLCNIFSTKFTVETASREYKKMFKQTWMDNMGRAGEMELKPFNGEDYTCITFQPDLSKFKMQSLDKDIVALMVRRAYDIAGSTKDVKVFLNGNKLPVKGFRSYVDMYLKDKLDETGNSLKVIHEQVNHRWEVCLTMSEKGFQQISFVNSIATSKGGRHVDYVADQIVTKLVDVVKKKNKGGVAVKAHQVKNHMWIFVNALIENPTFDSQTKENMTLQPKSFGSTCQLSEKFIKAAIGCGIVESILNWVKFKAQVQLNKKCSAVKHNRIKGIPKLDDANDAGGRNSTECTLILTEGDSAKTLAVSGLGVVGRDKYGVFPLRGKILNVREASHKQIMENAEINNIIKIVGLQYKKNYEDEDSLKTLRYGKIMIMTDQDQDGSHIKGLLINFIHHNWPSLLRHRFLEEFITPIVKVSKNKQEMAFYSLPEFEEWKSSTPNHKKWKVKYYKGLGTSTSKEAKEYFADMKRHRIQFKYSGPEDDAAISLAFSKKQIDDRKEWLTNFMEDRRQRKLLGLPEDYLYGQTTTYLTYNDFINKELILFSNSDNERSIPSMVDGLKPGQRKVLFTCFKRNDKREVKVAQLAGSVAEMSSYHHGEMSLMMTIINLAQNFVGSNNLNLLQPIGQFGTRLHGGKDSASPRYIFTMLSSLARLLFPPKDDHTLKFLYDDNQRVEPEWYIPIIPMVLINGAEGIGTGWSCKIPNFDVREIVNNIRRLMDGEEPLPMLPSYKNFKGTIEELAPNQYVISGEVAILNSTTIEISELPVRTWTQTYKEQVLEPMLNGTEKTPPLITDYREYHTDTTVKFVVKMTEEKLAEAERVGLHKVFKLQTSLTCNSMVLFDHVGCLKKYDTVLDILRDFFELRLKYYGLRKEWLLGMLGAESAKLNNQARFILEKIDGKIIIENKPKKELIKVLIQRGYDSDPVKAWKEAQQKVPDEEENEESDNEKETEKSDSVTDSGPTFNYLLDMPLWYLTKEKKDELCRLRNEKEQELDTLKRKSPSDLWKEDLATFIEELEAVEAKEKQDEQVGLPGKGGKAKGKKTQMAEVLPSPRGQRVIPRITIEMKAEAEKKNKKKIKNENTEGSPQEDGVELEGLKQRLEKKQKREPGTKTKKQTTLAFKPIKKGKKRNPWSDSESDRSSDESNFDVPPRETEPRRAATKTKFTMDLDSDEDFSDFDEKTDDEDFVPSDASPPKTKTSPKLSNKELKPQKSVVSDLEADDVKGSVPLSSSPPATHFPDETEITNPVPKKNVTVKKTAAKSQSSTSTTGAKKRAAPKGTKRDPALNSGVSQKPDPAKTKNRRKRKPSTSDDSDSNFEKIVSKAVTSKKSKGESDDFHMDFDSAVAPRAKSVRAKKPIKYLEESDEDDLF

Structure (SMILES)	Activity (Homo sapiens)	Activity (L02 [1])	IC50 (MRC5 [4]) [µM]	Activity (HepG2 [6]) [mm3]	Activity (L02 [11])	Activity (L02 [12]) [%]	Activity (L02 [13]) [%]	IC50 (MCF7) [µM]	IC50 (L02 [17]) [µM]	LD50 at 480 h [18] [mg/kg]	Activity (L02 [20])	inhibition [21]	IC50 (HeLa) [µM]	IC50 (DNA topoisomerase II [25]) [µM]	inhibition in vivo at 30 mg/kg (HepG2 [26]) [%]	IC50 (A549) [µM]	IC50 (HepG2 [28]) [µM]	ED50 (HepG2 [32]) [mg/kg]	IC50 [33] [µM]	IC50 (HMEC [35]) [µM]	other results
COc1cc([C@@H]2c3cc4c(cc3[C@@H](O[C@@H]3O[C@@H]5CO[C@@H](c6cccs6)O[C@H]5[C@H](OC(=O)CSc5nc6cc(F)ccc6s5)[C@H]3NC(=O)CSc3nc5cc(F)ccc5s3)[C@H]3COC(=O)[C@H]23)OCO4)cc(OC)c1O	Active	Toxic	122	446.35	Non-Toxic	30	7.2	10.8	121	208	Non-Toxic	Active	152	116.5	73	12.6	10.3	32.6	120	122	fold change (FC) (L02 [2]): 10; Activity [3]: Non-Toxic; Activity (HepG2 [5]): inactive; Activity [7]: Non-Toxic; selectivity ratio at 20 days [8]: 6.39; Activity (L02 [9]): Toxic; inhibition [10]: Dose-dependent effect; Activity [14]: Non-Toxic; Activity (HepG2 [15]): Active; inhibition [16]: 100%; fold change (FC) (MRC5 [19]): 10; Activity (HepG2 [22]): 78%; Activity (HepG2 [23]): 30 - 55%; fold change (FC) (HMEC [24]): 10; Activity (HepG2 [27]): 55%; Activity (L02 [29]): 40%; Activity [30]: Non-Toxic; Activity [31]: Non-Toxic; Activity (DNA topoisomerase II [34]): Not Active
COc1cc([C@@H]2c3cc4c(cc3[C@@H](O[C@@H]3O[C@@H]5CO[C@@H](c6cccs6)O[C@H]5[C@H](O)[C@H]3O)[C@H]3COC(=O)[C@H]23)OCO4)cc(OC)c1O [TENIPOSIDE]	inactive	Toxic	12.2	259.15	Toxic	88	98.3	11.1	11.5	46.1	Toxic	Active	14.9	62.7	48	8.2	4.3	40.5	22.3	12.4	Activity (HepG2 [36]): >20%; Activity (L02 [37]): Toxic; Activity (HepG2 [38]): 86%; Activity (L02 [39]): Toxic; Activity (HepG2 [40]): 71%; Activity [41]: Toxic; Activity (L02 [42]): 84%
